Source: US10160755B2 (Plexxikon Inc., priority 2015, dated 2018)

Target: T1, BA/F3-FLT3-ITD + D835Y cells (Homo sapiens, UniProt P36888, D835Y, cells depend on it, form not given)
T1 sequence (P36888 1-993 D835Y): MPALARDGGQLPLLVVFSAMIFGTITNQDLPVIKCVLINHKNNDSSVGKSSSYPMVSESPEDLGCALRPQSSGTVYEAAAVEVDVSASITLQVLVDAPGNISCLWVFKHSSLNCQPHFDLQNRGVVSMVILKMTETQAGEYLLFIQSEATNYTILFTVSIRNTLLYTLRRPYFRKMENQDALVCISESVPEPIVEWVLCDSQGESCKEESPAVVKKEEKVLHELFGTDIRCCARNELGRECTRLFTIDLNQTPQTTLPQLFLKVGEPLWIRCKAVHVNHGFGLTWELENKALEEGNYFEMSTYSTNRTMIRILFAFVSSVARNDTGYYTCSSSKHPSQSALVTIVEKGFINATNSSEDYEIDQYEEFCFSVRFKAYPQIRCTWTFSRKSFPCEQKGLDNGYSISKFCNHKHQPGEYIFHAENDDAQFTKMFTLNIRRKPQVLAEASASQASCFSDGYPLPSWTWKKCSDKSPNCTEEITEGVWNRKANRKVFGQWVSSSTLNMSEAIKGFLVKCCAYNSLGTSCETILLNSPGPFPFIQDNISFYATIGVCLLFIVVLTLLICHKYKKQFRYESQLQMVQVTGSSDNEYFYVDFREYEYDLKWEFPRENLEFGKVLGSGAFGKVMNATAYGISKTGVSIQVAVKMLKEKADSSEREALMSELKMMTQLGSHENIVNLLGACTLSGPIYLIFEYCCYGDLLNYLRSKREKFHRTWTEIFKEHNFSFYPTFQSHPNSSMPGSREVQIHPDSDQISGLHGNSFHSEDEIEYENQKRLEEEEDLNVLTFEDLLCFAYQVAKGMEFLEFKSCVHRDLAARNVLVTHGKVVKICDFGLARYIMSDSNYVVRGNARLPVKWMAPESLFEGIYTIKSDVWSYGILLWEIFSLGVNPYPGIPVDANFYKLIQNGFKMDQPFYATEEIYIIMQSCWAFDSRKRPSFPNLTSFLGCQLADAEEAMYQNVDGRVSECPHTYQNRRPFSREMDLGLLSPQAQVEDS
Test: BA/F3-FLT3-ITD + D835Y cell proliferation assay (CellTiter-Glo)
Format: cell-based, murine
Settings: BaF3 cells, read-out: BaF3_FLT3_ITD/D835Y IC50
Source text: The FLT3 inhibitors may also be assessed using leukemia cell lines that express endogenous FLT3-ITD or cells that are engineered to express wild-type or mutant FLT3. The cells expressing endogenous FLT3 are dependent upon FLT3 catalytic activity for growth. For the engineered cells, murine BA/F3 cells were transfected with full-length FLT3 (either wild-type, or containing the ITD, D835Y, or F691L mutations, as noted). The parental BA/F3 cells are dependent upon Interleukin-3 (IL-3) for survival, and introduction of the FLT3 constructs renders these cells dependent upon FLT3 kinase activity when cultured in the absence of IL-3. Engineered BA/F3 cell growth assays can be performed in either the absence or presence of IL-3, to assess the compound inhibition of FLT3 or to detect the presence of off-target activity, respectively. Inhibitors of FLT3 kinase activity reduce or eliminate the FLT3 oncogenic signaling, resulting in reduced cell proliferation. This inhibition is measured as a function of compound concentration to assess IC50 values.
Cells were seeded at 1×10^4 cells per well of a 96 well cell culture plate in 50 μl of cell culture medium. Compounds were dissolved in DMSO, typically at a concentration of 5 mM and were serially diluted 1:3 for a total of eight points and added to the cells to final concentrations of 10, 3.3, 1.1, 0.37, 0.12, 0.041, 0.014 and 0.0046 μM in 100 μl cell culture medium (final concentration 0.2% DMSO). […] The cells were incubated at 37° C., 5% CO2 for three days. CellTiter-Glo Buffer (Promega Cell Viability Assay catalog #G7573) and substrate were equilibrated to room temperature, and enzyme/substrate Recombinant Firefly Luciferase/Beetle Luciferin was reconstituted. […] The plates were read on a Tecan M1000 using Luminescence protocol modified to read 0.1 s per well. The luminescence reading assesses the ATP content, which correlates directly with cell number such that the reading as a function of compound concentration was used to determine the IC50 value.

GI50	SMILES
225 nM	COc1cnc2[nH]cc(-c3ccc4[nH]cnc4c3)c2c1 [Compound 2]
237 nM	COc1cnc2[nH]cc(-c3ccc4ncsc4c3)c2c1 [Compound 3]
839 nM	COc1cnc2[nH]cc(-c3ccc4[nH]ccc4c3)c2c1 [Compound 1, reference compound]
